According to PubChem BioAssay (NCI):
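Five compound concentrations were applied to cells in 96-well plates for 48 hours; endpoints were derived by simple linear interpolation of the resulting dose-response curve. At the TGI there is no net growth.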

How the values were obtained:
Test in all cases: NCI anticancer screen, dose series, 48 h
OVCAR-5 ovarian = system: OVCAR-5 ovarian
HOP-92 NSCLC = system: HOP-92 NSCLC
UACC-62 melanoma = system: UACC-62 melanoma
SK-OV-3 ovarian = system: SK-OV-3 ovarian
EKVX NSCLC = system: EKVX NSCLC
IGROV1 ovarian = system: IGROV1 ovarian
NCI-H226 lung = system: NCI-H226 lung
UACC-257 melanoma = system: UACC-257 melanoma
HCT-15 colon = system: HCT-15 colon
MCF7 breast = system: MCF7 breast
NCI/ADR-RES ovarian = system: NCI/ADR-RES ovarian

| Compound | TGI (OVCAR-5 ovarian) [µM] | TGI (HOP-92 NSCLC) [µM] | TGI (UACC-62 melanoma) [µM] | TGI (SK-OV-3 ovarian) [µM] | TGI (EKVX NSCLC) [µM] | TGI (IGROV1 ovarian) [µM] | TGI (NCI-H226 lung) [µM] | TGI (UACC-257 melanoma) [µM] | TGI (HCT-15 colon) [µM] | TGI (MCF7 breast) [µM] | TGI (NCI/ADR-RES ovarian) [µM] |
| --- | --- | --- | --- | --- | --- | --- | --- | --- | --- | --- | --- |
| O=S1(=O)c2ccccc2N(O)C2=NCCN21 | > 100 | > 100 | > 100 | > 100 | > 100 | > 100 | > 100 | > 100 |  |  |  |
| COC(=O)C1=CO[C@@H](C)[C@@H]2Cn3ccc4c5ccccc5nc-4c3C[C@H]12 | > 100 | > 100 | > 100 | > 100 | > 100 | > 100 | > 100 | > 100 | > 100 |  |  |
| Cc1nc(OCc2ccccc2)c2ncn(CCO)c2n1 | > 100 | > 100 | > 100 | > 100 |  | > 100 | > 100 | > 100 |  | > 100 | > 100 |
| COC1OC2COC1(OCc1ccccc1)C1OC(C)(C)OC21 (configuration not stated) | > 100 |  | > 100 | > 100 | > 100 | > 100 | > 100 | > 100 | > 100 | > 100 | > 100 |
| O=P1(c2ccccc2)C(c2ccccc2)CCC1c1ccccc1 (configuration not stated) |  | > 100 | > 100 | > 100 | > 100 | > 100 | > 100 | > 100 | > 100 | > 100 |  |
| Fc1cc(C2=Nn3c(COc4ccccc4Cl)nnc3S/C2=C\c2ccc(Cl)cc2)c(Cl)cc1Cl | > 100 | 20.2 |  | > 100 | > 100 | 33 | > 100 | > 100 | 20.7 | 83.4 | 30.1 |
| Cc1cc(N(CCC#N)CCC#N)ccc1/C(N=Nc1ccc([N+](=O)[O-])cc1)=N\NC(=O)c1cc(Cl)ccc1O | > 100 |  | 67.6 | > 100 | 82.4 | > 100 | 93 | > 100 | > 100 | > 100 | > 100 |
| COc1ccc(N2C(=O)C3CC(c4ccc(Br)cc4)c4c([nH]c5ccccc45)C3C2=O)cc1 (configuration not stated) | 73.4 | 29.3 | 32.3 |  | 42.7 | 26.2 | 77.2 | 36.8 | > 100 |  |  |
| O=C1CCCCCCC2=C1C(Sc1ccccc1)CC2 (configuration not stated) |  |  | > 100 | > 100 | 85.2 |  | > 100 | > 100 | > 100 |  |  |
| ClCc1nc2ccccc2[nH]1 | > 100 | > 100 | > 100 |  | > 100 | > 100 | > 100 | > 100 | > 100 | > 100 | > 100 |
| Cc1ccc2c(c1)nc1n2C(c2c(F)cccc2F)SC1 (configuration not stated) | > 100 |  |  | > 100 | > 100 | > 100 | > 100 | > 100 | 82.4 | > 100 | > 100 |
| O=[N+]([O-])c1ncc(N(CCO)CCO)s1 | > 100 |  | 43.7 | > 100 | > 100 |  | > 100 | 71.4 | > 100 | > 100 |  |
| COC(=O)Nc1nc2ccc(NS(=O)(=O)c3cccs3)cc2[nH]1 | > 100 | 70.4 | > 100 | 90.6 | 73.7 | 39.7 | > 100 |  | > 100 | 70.4 | 85.3 |
| COC(=O)C1CCC(=O)N1C(c1ccc(OC)cc1)c1cc(OC)c(OC)c(OC)c1 (configuration not stated) | > 100 | > 100 | > 100 | > 100 | > 100 |  | 2.11 | > 100 | > 100 | > 100 | 1.01 |
| O=C1C(Cl)=C(Cl)C(=O)C(CCNc2nccs2)=C1Cl | > 100 | 58.2 | 63.6 | > 100 | 60.4 | 42.2 |  | 54.3 | 43.7 | > 100 | 58.7 |
| CCOP(=O)(OCC)Oc1c(OC)c2[nH]c(C(=O)OC)cc2c2c(C(=O)O)c[nH]c12 | > 100 | > 100 | > 100 | > 100 | > 100 | > 100 |  | > 100 | > 100 | > 100 | > 100 |
| CCOC(=O)C(NC(=O)c1cccc(Cl)c1)(Nc1ccc(S(=O)(=O)Nc2cc(C)on2)cc1)C(F)(F)F (configuration not stated) | > 100 | > 100 |  | > 100 | > 100 | > 100 | > 100 | > 100 | > 100 | > 100 | > 100 |
| Nn1c(CCCCCCCCc2nnc(-c3c(O)ccc4ccccc34)n2N)nnc1-c1c(O)ccc2ccccc12 | > 100 | > 100 | > 100 | > 100 |  | > 100 | > 100 | > 100 | > 100 | > 100 | > 100 |
| COC(=O)CCc1ccc(CCC(=O)OC)cc1 | > 100 | > 100 |  | > 100 | > 100 | > 100 |  | > 100 | > 100 | > 100 | > 100 |
| COC(NC(=O)Nc1ccc(C)cc1)(C(F)(F)F)C(F)(F)F | > 100 | 93.3 | > 100 | 76.4 |  | > 100 | > 100 |  |  | > 100 | 84.7 |
| CCn1c(SCC(=O)N/N=C2\SCC(=O)N2c2ccc(C)cc2)nc2ccccc2c1=O | 48.2 |  | 29.1 | 36 | 46.2 | 43.2 | 64.8 | 35.3 | > 100 | 45.9 | 49.7 |
| NCC(=O)Nc1ccccc1 | > 100 | > 100 | > 100 |  | > 100 | > 100 | > 100 | > 100 | > 100 |  | > 100 |
